Reference: patent US7273880B2, “Selective NPY (Y5) antagonists” (H. Lunbeck A/S, priority 1999, dated 2007)
Counter-ions that a name gives are not always drawn.

Target: T1, human Y5 receptor (hNPY-5) (Homo sapiens, UniProt Q15761)
T1 construct: expressed in transfected cells; host or cells: mouse fibroblast LM(tk-) cells, e.g. L-hY5-7 (ATCC CRL-11995)
T1 sequence (Q15761 1-445): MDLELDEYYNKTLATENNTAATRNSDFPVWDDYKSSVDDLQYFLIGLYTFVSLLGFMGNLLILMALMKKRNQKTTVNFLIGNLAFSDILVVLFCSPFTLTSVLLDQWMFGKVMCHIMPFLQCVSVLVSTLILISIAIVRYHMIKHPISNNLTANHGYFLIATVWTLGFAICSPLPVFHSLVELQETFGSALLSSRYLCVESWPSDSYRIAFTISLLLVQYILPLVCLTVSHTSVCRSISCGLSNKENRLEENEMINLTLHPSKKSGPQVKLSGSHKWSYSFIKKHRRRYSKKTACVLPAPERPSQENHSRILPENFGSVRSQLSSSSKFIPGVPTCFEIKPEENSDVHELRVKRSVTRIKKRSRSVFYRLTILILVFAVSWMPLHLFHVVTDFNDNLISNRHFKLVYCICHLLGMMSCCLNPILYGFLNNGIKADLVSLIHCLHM
Assay: Radioligand binding to membranes, cloned human Y5 receptor
Details: cloned human NPY Y5 receptor, radioligand competition binding; Tables 1-3; read-out: Ki, nM hNPY-5
Experimental: Binding of the compounds of the present invention to human Y1, Y2, Y4, and Y5 receptors was evaluated using stably transfected 293 or LM(tk-) cells as described above. Stably transfected cell lines which may be used for binding assays include, for example, for the human Y1 receptor, 293-hY1-5 (deposited Jun. 4, 1996, under ATCC Accession No. CRL-12121), for the human Y2 receptor, 293-hY2-10 (deposited Jan. 27, 1994, under ATCC Accession No. CRL-11537), for the human Y4 receptor, L-hY4-3 (deposited Jan. 11, 1995, under ATCC Accession No. CRL-11779), and for human Y5 receptor, L-hY5-7 (deposited Nov. 15, 1995, under ATCC Accession No. CRL-11995). These cell lines were deposited with the American Type Culture Collection (ATCC), 10801 University Blvd., Manassas, Va. 20110-2209, U.S.A. under the provisions of the Budapest Treaty for the International Recognition of the Deposit of Microorganisms for the Purposes of Patent Procedure.
Membranes were harvested from COS-7 cells 48 hours after transient transfection. Adherent cells were washed twice in ice-cold phosphate buffered saline (138 mM NaCl, 8.1 mM Na2HPO4, 2.5 mM KCl, 1.2 mM KH2PO4, 0.9 mM CaCl2, 0.5 mM MgCl2, pH 7.4) and lysed by sonication in ice-cold sonication buffer (20 mM Tris-HCl, 5 mM EDTA, pH 7.7). Large particles and debris were cleared by low speed centrifugation (200×g, 5 min, 4° C.). Membranes were collected from the supernatant fraction by centrifugation (32,000×g, 18 min, 4° C.), washed with ice-cold hypotonic buffer, and collected again by centrifugation (32,000×g, 18 min, 4° C.). The final membrane pellet was resuspended by sonication into a small volume of ice-cold binding buffer (˜1 ml for every 5 plates: 10 mM NaCl, 20 mM HEPES, 0.22 mM KH2PO4, 1.26 mM CaCl2, 0.81 mM MgSO4, pH 7.4). Protein concentration was measured by the Bradford method (Bradford, 1976) using Bio-Rad Reagent, with bovine serum albumin as a standard. Membranes were held on ice for up to one hour and used fresh, or flash-frozen and stored in liquid nitrogen.
Membranes were prepared similarly from 293, LM(tk-), and NIH-3T3 cells. To prepare membranes from baculovirus infected cells, 2×10^7 Sf21 cells were grown in 150 mm tissue culture dishes and infected with a high-titer stock of hY5BB3. Cells were incubated for 2-4 days at 27° C., no CO2 before harvesting and membrane preparation as described above.
Membrane suspensions were diluted in binding buffer supplemented with 0.1% bovine serum albumin to yield an optimal membrane protein concentration so that ^125I-PYY (or alternative radioligand such as ^125I-NPY, ^125I-PYY3-36, or ^125I-[Leu^31Pro^34]PYY) bound by membranes in the assay was less than 10% of ^125I-PYY (or alternative radioligand) delivered to the sample (100,000 dpm/sample=0.08 nM for competition binding assays). ^125I-PYY (or alternative radioligand) and peptide competitors were also diluted to desired concentrations in supplemented binding buffer. Individual samples were then prepared in 96-well polypropylene microtiter plates by mixing 125I-PYY (25 μL) (or alternative radioligand), competing peptides or supplemented binding buffer (25 μL), and finally, membrane suspensions (200 μL). Samples were incubated in a 30° C. water bath with constant shaking for 120 min. Incubations were terminated by filtration over Whatman GF/C filters (pre-coated with 1% polyethyleneimine and air-dried before use), followed by washing with 5 mL of ice-cold binding buffer. Filter-trapped membranes were impregnated with MeltiLex solid scintillant (Wallac, Turku, Finland) and counted for ^125I in a Wallac Beta-Plate Reader. Alternatively, incubations were carried out in GF/C filter plates (pre-coated with 1% polyethyleneimine and air-dried before use), followed by vacuum filtration and three washes of 300 μL of ice-cold binding buffer. 50 μL of UltimaGold (Packard) scintillant were added and counted for ^125I in a Wallac MicroBeta Trilux. […]

Row | Ki [nM] | Compound
1 | 26 | O=S(=O)(NCCCCNc1nc2c(s1)CCCc1ccc(F)cc1-2)c1cccnc1 [Example 56, 1-Aza-9-fluoro-4,5-dihydro-2-(4-(3-pyridyl)sulfonyl-amino)butylamino-3-thia-benzo[e]azulene]
2 | 3 | COc1ccc(C)cc1S(=O)(=O)NCCOCCNc1nc2c(s1)CCCc1ccc(F)cc1-2 [Example 58, 1-Aza-9-fluoro-4,5-dihydro-2-{2-[2-(2-methoxy-5-methylphenyl)sulfonylamino]ethoxy}ethylamino-3-thia-benzo[e]azulene]
3 | 2.3 | O=S(=O)(NC[C@H]1CC[C@H](Nc2nc3c(s2)CCCc2ccc(F)cc2-3)CC1)c1cccnc1 [Example 59, trans-1-Aza-9-fluoro-4,5-dihydro-2-(4-(3-pyridyl)-sulfonylaminomethyl)cyclohexylamino-3-thia-benzo[e]-azulene]
4 | 31 | COc1ccc2c(c1)-c1nc(NC[C@H]3CC[C@H](NS(C)(=O)=O)CC3)sc1CCO2 [Example 63, trans-1-Aza-4,5-dihydro-9-methoxy-2-{4-methylsulfonyl-amino}cyclohexylmethylamino-6-oxa-3-thia-benzo[e]azulene]
5 | 11.6 | COc1cccc2c1OCCc1sc(NC[C@H]3CC[C@H](NS(C)(=O)=O)CC3)nc1-2 [Example 65, trans-N2-(4-Methylsulfonylamino)cyclohexylmethyl-7-methoxy-4,5-dihydro-benzo[2,3]oxepino[4,5-d][1,3]-thiazol-2-amine hydrochloride]
6 | 2 | COc1cccc2c1OCCc1sc(NC[C@H]3CC[C@H](NS(=O)(=O)N(C)C)CC3)nc1-2 [Example 66, trans-1-Aza-4,5-dihydro-7-methoxy-2-{4-dimethylamino-sulfonylamino}cyclohexylmethylamino-6-oxa-3-thia-benzo[e]azulene]
7 | 4 | CCOC(=O)N[C@H]1CC[C@H](CNc2nc3c(s2)CCCc2ccc(F)cc2-3)CC1 [Example 68, trans-N2-(4-Ethoxycarbonylamino)cyclohexylmethyl-9-fluoro-5,6-dihydro-4H-benzo[6,7]cyclohepta[d][1,3]-thiazol-2-amine hydrochloride]
8 | 4.1 | CC(C)S(=O)(=O)NCCOCCNc1nc2c(s1)CCCc1ccc(F)cc1-2 [Example 69, 1-Aza-9-fluoro-4,5-dihydro-2-(2-(2-isopropyl-sulfonylamino)-ethoxy)ethylamino-3-thia-benzo[e]-azulene]
9 | 21 | CS(=O)(=O)NCC1CCC(Nc2nc3c(s2)COc2ccccc2-3)CC1 (centres unmarked) [Example 70, 2-(4-Methylsulfonylaminomethyl)cyclohexylamino-4H-chromeno[4,3-d]thiazole]
10 | 2.5 | COc1ccc2c(c1)CCCc1sc(NC[C@H]3CC[C@H](NS(C)(=O)=O)CC3)nc1-2 [Example 71, trans-1-Aza-4,5-dihydro-8-methoxy-2-(4-methylsulfonyl-amino)cyclohexylmethylamino-3-thia-benzo[e]azulene]
11 | 8.7 | COc1ccc2c(c1)CCCc1sc(N[C@H]3CC[C@H](CNS(=O)(=O)C(C)C)CC3)nc1-2 [Example 73, trans-1-Aza-4,5-dihydro-2-(4-isopropylsulfonyl-aminomethyl)-cyclohexylamino-8-methoxy-3-thia-benzo[e]-azulene]
12 | 37 | COc1cccc2c1OCCc1sc(N[C@H]3CC[C@H](CNS(C)(=O)=O)CC3)nc1-2 [Example 74, trans-1-Aza-4,5-dihydro-2-(4-methylsulfonylamino-methyl)-cyclohexylamino-7-methoxy-3-thia-benzo[e]-azulene]
13 | 36 | CCC(=O)NC[C@H]1CC[C@H](Nc2nc3c(s2)CCCc2ccc(F)cc2-3)CC1 [Example 75, trans-1-Aza-4,5-dihydro-2-(4-ethylcarbonylamino-methyl)-cyclohexylamino-9-fluoro-3-thia-benzo[e]-azulene]

The remaining lines, values behind:

Row | Compound | Ki [nM]
14 | CN(C)S(=O)(=O)NCCCCCNc1nc2c(s1)CCCc1ccc(F)cc1-2 [Example 2, 1-Aza-9-fluoro-4,5-dihydro-2-{5-(dimethyl-aminosulfonyl-amino)pentyl}amino-3-thia-benzo[e]azulene] | 1.6
15 | CN(C)S(=O)(=O)NCCCCNc1nc2c(s1)CCCc1ccc(F)cc1-2 [Example 6, 1-Aza-9-fluoro-4,5-dihydro-2-(4-(dimethyl-aminosulfonyl-amino)butyl)amino-3-thia-benzo[e]-azulene] | 3.1
16 | O=S(=O)(NCCCCNc1nc2c(s1)CCCc1ccc(F)cc1-2)c1cccc2ccccc12 [Example 8, 1-Aza-9-fluoro-4,5-dihydro-2-(4-(1-naphthyl)sulfonyl-amino)butylamino-3-thia-benzo[e]azulene] | 94
17 | CC(C)S(=O)(=O)NCCCCCNc1nc2c(s1)CCCc1ccc(F)cc1-2 [Example 13, 1-Aza-9-fluoro-4,5-dihydro-2-(5-isopropyl-sulfonylamino)-pentylamino-3-thia-benzo[e]azulene] | 132
18 | COc1ccc(S(=O)(=O)N[C@H]2CC[C@H](Nc3nc4c(s3)CCCc3ccc(F)cc3-4)CC2)cc1 [Example 36, trans-1-Aza-9-fluoro-4,5-dihydro-2-(4-(4-methoxy-phenyl)sulfonylamino)cyclohexylamino-3-thia-benzo[e]-azulene] | 60
19 | O=S(=O)(NC[C@H]1CC[C@H](Nc2nc3c(s2)CCCc2ccc(F)cc2-3)CC1)C(F)(F)F [Example 41, trans-1-Aza-9-fluoro-2-{4-trifluoromethylsulfonyl-aminomethyl}cyclohexylamino-4,5-dihydro-3-thiabenzo[e]-azulene] | 30
20 | CCS(=O)(=O)N[C@H]1CC[C@H](CNc2nc3c(s2)CCCc2ccc(F)cc2-3)CC1 [Example 52, trans-N2-(4-Ethylsulfonylamino)cyclohexylmethyl-9-fluoro-5,6-dihydro-4H-benzo[6,7]cyclohepta[d][1,3]-thiazol-2-amine] | 1.7
21 | CC(C)S(=O)(=O)N[C@H]1CC[C@H](CNc2nc3c(s2)CCCc2ccc(F)cc2-3)CC1 [Example 53, trans-1-Aza-9-fluoro-4,5-dihydro-2-{4-isopropyl-sulfonylamino}cyclohexylmethylamino-3-thia-benzo[e]-azulene] | 3.2
22 | O=S(=O)(NCCCCCNc1nc2c(s1)CCCc1ccc(F)cc1-2)c1cccnc1 [Example 55, 1-Aza-9-fluoro-4,5-dihydro-2-(5-(3-pyridyl)sulfonyl-amino)pentylamino-3-thia-benzo[e]azulene] | 3.4
23 | COP(=O)(N[C@H]1CC[C@H](CNc2nc3c(s2)CCCc2ccc(F)cc2-3)CC1)OC [Example 67, trans-N2-(4-Dimethylphosphonylamino)cyclohexylmethyl-9-fluoro-5,6-dihydro-4H-benzo[6,7]cyclohepta[d][1,3]-thiazol-2-amine] | 5.5
